Laboratory results as given in ChEMBL document CHEMBL5260810, “Inhibition of bromodomain-containing protein 9 for the prevention of epigenetically-defined drug resistance” (Bioorg Med Chem Lett, 2017).
Active and inactive are the calls of the source. No cut-off for these calls is given here.

What was measured:
PC-9 = assay: Cytotoxicity against human PC-9 cells assessed as growth inhibition at 2 uM supplemented with fresh medium containing compound every 3 days for 9 days by Beckman Coulter counting method; assay type: functional, cell-based; conditions: time 9.0 day
CWR22R = assay: Cytotoxicity against human 22Rv1 cells after 8 days; assay type: functional, cell-based; conditions: 22Rv1, 192 h
DOHH-2 = assay: Cytotoxicity against human DOHH-2 cells measured after 3 days; assay type: functional, cell-based; conditions: DOHH-2, 72 h
KG-1 = assay: Cytotoxicity against human KG-1 cells measured after 3 days; assay type: functional, cell-based; conditions: KG-1, 72 h
[1] = Cytotoxicity against human HuH-1 cells measured after 3 days; assay type: functional, cell-based; conditions: HuH-1, 72 h
NCI-H2030 = assay: Cytotoxicity against human NCI-H2030 cells measured after 8 days; assay type: functional, cell-based; conditions: NCI-H2030, 192 h
T98G = assay: Cytotoxicity against human T98G cells measured after 3 days; assay type: functional, cell-based; conditions: 72 h
SW626 = assay: Cytotoxicity against human SW626 cells measured after 3 days; assay type: functional, cell-based; conditions: SW626, 72 h
[2] = Cytotoxicity against human YMB-1 cells measured after 3 days; assay type: functional, cell-based; conditions: YMB-1, 72 h
PA-1 = assay: Cytotoxicity against human PA-1 cells measured after 3 days; assay type: functional, cell-based; conditions: PA-1, 72 h
CAL-12T = assay: Cytotoxicity against human CAL-12T cells measured after 3 days; assay type: functional, cell-based; conditions: 72 h
[3] = Cytotoxicity against human MCAS cells measured after 3 days; assay type: functional, cell-based; conditions: 72 h
Jurkat = assay: Cytotoxicity against human Jurkat cells measured after 3 days; assay type: functional, cell-based; conditions: 72 h
[4] = Cytotoxicity against human EFM-192C cells measured after 3 days; assay type: functional, cell-based; conditions: 72 h
SW982 = assay: Cytotoxicity against human SW982 cells measured after 3 days; assay type: functional, cell-based; conditions: SW982, 72 h
YMB-1-E = assay: Cytotoxicity against human YMB-1-E cells measured after 3 days; assay type: functional, cell-based; conditions: 72 h
[5] = Cytotoxicity against human MOLM16 cells measured after 3 days; assay type: functional, cell-based, MOLM-16; conditions: MOLM16, 72 h
OCI-AML-3 = assay: Cytotoxicity against human OCI-AML-3 cells measured after 3 days; assay type: functional, cell-based; conditions: OCI-AML-3, 72 h
[6] = Cytotoxicity against human NCE-G 141 cells measured after 3 days; assay type: functional, cell-based; conditions: NCE-G 141, 72 h
AU565 = assay: Cytotoxicity against human AU565 cells measured after 3 days; assay type: functional, cell-based; conditions: AU565, 72 h
[7] = Cytotoxicity against human OCI-M2 cells measured after 3 days; assay type: functional, cell-based; conditions: OCI-M2, 72 h
[8] = Cytotoxicity against human OVISE cells measured after 3 days; assay type: functional, cell-based; conditions: 72 h
[9] = Cytotoxicity against human KPL-4 cells measured after 3 days; assay type: functional, cell-based; conditions: KPL4, 72 h
[10] = Cytotoxicity against human 59M cells measured after 3 days; assay type: functional, cell-based; conditions: 72 h
OAW-42 = assay: Cytotoxicity against human OAW-42 cells measured after 3 days; assay type: functional, cell-based; conditions: OAW-42, 72 h
[11] = Cytotoxicity against human NCE-G 120 cells measured after 3 days; assay type: functional, cell-based; conditions: NCE-G 120, 72 h
MEL-HO = assay: Cytotoxicity against human MEL-HO cells measured after 3 days; assay type: functional, cell-based; conditions: 72 h
[12] = Cytotoxicity against human KMS-34 cells measured after 3 days; assay type: functional, cell-based; conditions: KMS-34, 72 h
[13] = Cytotoxicity against human RMUG-S cells measured after 3 days; assay type: functional, cell-based; conditions: 72 h
WSUDLCL2 = assay: Cytotoxicity against human WSUDLCL2 cells measured after 3 days; assay type: functional, cell-based; conditions: WSUDLCL2, 72 h
MFM-223 = assay: Cytotoxicity against human MFM-223 cells measured after 3 days; assay type: functional, cell-based; conditions: MFM-223, 72 h
[14] = Cytotoxicity against human NCE-G 118 cells measured after 3 days; assay type: functional, cell-based; conditions: NCE-G 118, 72 h
[15] = Cytotoxicity against human Hs 38.T cells measured after 3 days; assay type: functional, cell-based; conditions: 72 h
Huh-7 = assay: Cytotoxicity against human Huh-7 cells measured after 3 days; assay type: functional, cell-based; conditions: Huh-7, 72 h
MDA-MB-175-VII = assay: Cytotoxicity against human MDA-MB-175-VII cells measured after 3 days; assay type: functional, cell-based; conditions: 72 h
KU812 cell line = assay: Cytotoxicity against human KU812 cell line measured after 3 days; assay type: functional, cell-based; conditions: KU812, 72 h
SCC-3 = assay: Cytotoxicity against human SCC-3 cells measured after 3 days; assay type: functional, cell-based; conditions: SCC-3, 72 h
OVCAR-5 = assay: Cytotoxicity against human OVCAR-5 cells measured after 3 days; assay type: functional, cell-based; conditions: OVCAR-5, 72 h
EB-3 = assay: Cytotoxicity against human EB-3 cells measured after 3 days; assay type: functional, cell-based; conditions: EB-3, 72 h
[16] = Cytotoxicity against human COV362 cells measured after 3 days; assay type: functional, cell-based; conditions: COV362, 72 h
EOL1 = assay: Cytotoxicity against human EOL1 cells measured after 3 days; assay type: functional, cell-based; conditions: EOL1, 72 h
[17] = Cytotoxicity against human OCI-M1 cells measured after 3 days; assay type: functional, cell-based; conditions: OCI-M1, 72 h
[18] = Cytotoxicity against human OVSAHO cells measured after 3 days; assay type: functional, cell-based; conditions: 72 h
[19] = target: Bromodomain-containing protein 4 (Homo sapiens, UniProt O60885); assay: Binding affinity to BRD4 in human PC-9 cell lysate assessed as increase in thermal stabilization at 2 uM at 38 to 71 degreeC measured after 30 mins by CETSA; assay type: subcellular
MDA-MB-415 = assay: Cytotoxicity against human MDA-MB-415 cells measured after 8 days; assay type: functional, cell-based; conditions: MDA-MB-415, 192 h
PC-3 = assay: Cytotoxicity against human PC-3 cells measured after 3 days; assay type: functional, cell-based; conditions: PC-3, 72 h
SU-DHL10 = assay: Cytotoxicity against human SU-DHL-10 cells measured after 3 days; assay type: functional, cell-based; conditions: SU-DHL10, 72 h
[20] = Cytotoxicity against human HCC2450 cells measured after 3 days; assay type: functional, cell-based; conditions: HCC2450, 72 h
[21] = Cytotoxicity against human OVCA429 cells measured after 3 days; assay type: functional, cell-based; conditions: OVCA429, 72 h
PEO1 = assay: Cytotoxicity against human PEO1 cells measured after 3 days; assay type: functional, cell-based; conditions: PEO1, 72 h
HCC1143 = assay: Cytotoxicity against human HCC1143 cells measured after 3 days; assay type: functional, cell-based; conditions: HCC1143, 72 h
HMV-2 cell line = assay: Antiproliferative activity against human HMV-2 cell line assessed as reduction in colony formation up to 20 uM supplemented with fresh medium containing compound every 3 days for 9 days by MTT staining based clonogenic assay; assay type: functional; conditions: time 9.0 day
A549 = assay: Antiproliferative activity against human A549 cells assessed as reduction in colony formation up to 20 uM supplemented with fresh medium containing compound every 3 days for 9 days by MTT staining based clonogenic assay; assay type: functional, cell-based; conditions: time 9.0 day
Capan-2 = assay: Antiproliferative activity against human Capan-2 cells assessed as reduction in colony formation up to 20 uM supplemented with fresh medium containing compound every 3 days for 9 days by MTT staining based clonogenic assay; assay type: functional, cell-based; conditions: time 9.0 day
MCF7 = assay: Antiproliferative activity against human MCF7 cells assessed as reduction in colony formation up to 20 uM supplemented with fresh medium containing compound every 3 days for 9 days by MTT staining based clonogenic assay; assay type: functional, cell-based; conditions: time 9.0 day
NCI-H460 = assay: Antiproliferative activity against human NCI-H460 cells assessed as reduction in colony formation up to 20 uM supplemented with fresh medium containing compound every 3 days for 9 days by MTT staining based clonogenic assay; assay type: functional, cell-based; conditions: time 9.0 day
Toledo = assay: Cytotoxicity against human Toledo cells measured after 8 days; assay type: functional, cell-based; conditions: 192 h

For `C/C=C/Cn1cc(-c2cc(OC)c(C(=O)N3CCOCC3)cc2OC)c2cc(C)[nH]c2c1=O`, the Activity (PC-9) was “inactive”, the IC50 (CWR22R) was 2 µM and the IC50 (DOHH-2) was 5 µM. For the same molecule, the IC50 (KG-1) was 5 µM, the IC50 [1] was 5 µM and the IC50 (NCI-H2030) was 2 µM. For the same molecule, the IC50 (T98G) was 5 µM, the IC50 (SW626) was 5 µM and the IC50 [2] was 5 µM. It also gave an IC50 (PA-1) of 5 µM, an IC50 (CAL-12T) of 5 µM and an IC50 [3] of 5 µM. For the same molecule, the IC50 (Jurkat) was 5 µM, the IC50 [4] was 5 µM and the IC50 (SW982) was 5 µM. It also gave an IC50 (YMB-1-E) of 5 µM, an IC50 [5] of 5 µM and an IC50 (OCI-AML-3) of 5 µM. The IC50 [6] was 5 µM, the IC50 (AU565) was 5 µM and the IC50 [7] was 5 µM. For the same molecule, the IC50 [8] was 5 µM, the IC50 [9] was 5 µM and the IC50 [10] was 5 µM. It also gave an IC50 (OAW-42) of 5 µM, an IC50 [11] of 5 µM and an IC50 (MEL-HO) of 5 µM. The IC50 [12] was 5 µM, the IC50 [13] was 5 µM and the IC50 (WSUDLCL2) was 5 µM. For the same molecule, the IC50 (MFM-223) was 5 µM, the IC50 [14] was 5 µM and the IC50 [15] was 5 µM. For the same molecule, the IC50 (Huh-7) was 5 µM, the IC50 (MDA-MB-175-VII) was 5 µM and the IC50 (KU812 cell line) was 5 µM. The IC50 (SCC-3) was 5 µM, the IC50 (OVCAR-5) was 5 µM and the IC50 (EB-3) was 5 µM. The IC50 [16] was 5 µM, the IC50 (EOL1) was 5 µM and the IC50 [17] was 5 µM. For the same molecule, the IC50 [18] was 5 µM, the Activity [19] was “inactive” and the IC50 (MDA-MB-415) was 2 µM. For the same molecule, the IC50 (PC-3) was 5 µM, the IC50 (SU-DHL10) was 5 µM and the IC50 [20] was 5 µM. It also gave an IC50 [21] of 5 µM, an IC50 (PEO1) of 5 µM and an IC50 (HCC1143) of 5 µM.
With `C/C=C/Cn1cc(-c2ccc(C(C)(C)O)cc2OC)c2cc[nH]c2c1=O` the Activity (HMV-2 cell line) was “inactive”, the Activity (A549) was “inactive” and the Activity (Capan-2) was “inactive”. The Activity (MCF7) was “inactive”, the Activity (NCI-H460) was “inactive” and the IC50 (Toledo) was 20 µM.
